{"source": "patent US20210299144A1", "about": "“USE OF PR[…] TO REDUCE CYST FORMATION IN KIDNEY” (priority 2019, published 2021)", "key": {"TRPM4": {"biological_target": "T1, TRPM4 (Mus musculus, UniProt Q7TN37)", "T1 construct": "endogenous in cells; host or cells: mIMCD-3 cell line with TRPM3 knocked out by CRISPR/Cas9; excised primary cilia", "T1 sequence (Q7TN37 whole entry)": "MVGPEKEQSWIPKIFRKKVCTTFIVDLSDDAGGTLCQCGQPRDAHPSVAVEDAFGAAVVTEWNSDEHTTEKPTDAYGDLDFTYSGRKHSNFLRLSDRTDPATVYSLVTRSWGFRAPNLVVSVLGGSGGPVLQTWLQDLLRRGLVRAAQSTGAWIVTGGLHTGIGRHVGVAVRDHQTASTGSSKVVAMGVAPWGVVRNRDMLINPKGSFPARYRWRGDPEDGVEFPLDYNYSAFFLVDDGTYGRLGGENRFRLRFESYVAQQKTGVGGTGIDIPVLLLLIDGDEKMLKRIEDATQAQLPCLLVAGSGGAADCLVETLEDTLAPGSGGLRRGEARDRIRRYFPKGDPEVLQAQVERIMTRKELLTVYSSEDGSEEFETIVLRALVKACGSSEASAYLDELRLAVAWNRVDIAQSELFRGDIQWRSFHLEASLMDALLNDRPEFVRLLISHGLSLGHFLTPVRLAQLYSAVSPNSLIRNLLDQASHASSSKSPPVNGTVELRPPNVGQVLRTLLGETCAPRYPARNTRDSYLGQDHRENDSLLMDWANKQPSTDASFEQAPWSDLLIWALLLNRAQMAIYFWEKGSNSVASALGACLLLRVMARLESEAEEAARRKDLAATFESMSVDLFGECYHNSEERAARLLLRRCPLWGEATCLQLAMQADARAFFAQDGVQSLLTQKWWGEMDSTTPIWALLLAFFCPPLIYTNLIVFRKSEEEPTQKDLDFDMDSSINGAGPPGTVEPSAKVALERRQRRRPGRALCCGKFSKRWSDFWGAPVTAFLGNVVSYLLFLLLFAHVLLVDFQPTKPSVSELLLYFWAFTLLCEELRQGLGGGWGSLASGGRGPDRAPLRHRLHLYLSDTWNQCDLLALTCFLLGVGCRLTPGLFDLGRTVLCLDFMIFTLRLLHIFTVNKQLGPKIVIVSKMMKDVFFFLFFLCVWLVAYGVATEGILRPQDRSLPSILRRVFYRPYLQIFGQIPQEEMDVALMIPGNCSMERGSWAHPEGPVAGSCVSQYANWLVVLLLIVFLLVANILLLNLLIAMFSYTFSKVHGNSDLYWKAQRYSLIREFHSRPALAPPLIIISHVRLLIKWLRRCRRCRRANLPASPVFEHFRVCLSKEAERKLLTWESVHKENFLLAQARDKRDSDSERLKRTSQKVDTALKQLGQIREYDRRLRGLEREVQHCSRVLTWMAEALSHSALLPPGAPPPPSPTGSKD", "assay": "TRPM4 current in cilia of TRPM3-knockout mIMCD-3 cells", "type": "biochemical, murine", "details": "2 mM cytoplasmic MgATP, cilia lacking TRPM3", "excerpt": "The large-conductance ciliary channel is not detectable unless TRPP2 is expressed. Given the pharmacological similarities between the ciliary TRPP2-dependent channel and TRPM3, we investigated whether the ciliary channel also requires expression of TRPM3. We used an mIMCD-3 cell line in which TRPM3 was knocked out by CRISPR/Cas9 genome editing. In electrical recordings from the primary cilia of cells lacking TRPM3, the large-conductance channel was never seen (n=45, Table 1, TRPM3 KO). […] Knocking out TRPM3 had no effect on the activity of another ciliary channel, TRPM4. In 17 cilia tested from TRPM3-knockout cells, 1 mM cytoplasmic Ca^2+ on average activated a current at +100 mV of 47±7 pA. […] As in cilia of wild-type cells, 2 mM cytoplasmic MgATP blocked the TRPM4 current. […]\nAll recordings were done under voltage clamp at room temperature (24° C.). […] Total mean channel current was measured as the mean current minus the current attributed to leak channels. The latter was determined from an amplitude histogram. […] Channel open probabilities were determined from amplitude histograms and are reported only when the number of channels in the membrane was unambiguous. The presence or absence of active TRPP2 channels was assessed with the cilium or patch exposed to 3 μM cytoplasmic Ca^2+ and the voltage clamped to +40 mV. […]"}, "[1]": {"biological_target": "T2, ciliary TRPP2-dependent channel (Mus musculus, UniProt J9SQF3)", "T2 construct": "Electrical recordings were made from primary cilia of mIMCD-3 cells; host or cells: mIMCD-3 cells, excised primary cilia (inside-out) or apical membrane patches", "T2 sequence (J9SQF3 whole entry)": "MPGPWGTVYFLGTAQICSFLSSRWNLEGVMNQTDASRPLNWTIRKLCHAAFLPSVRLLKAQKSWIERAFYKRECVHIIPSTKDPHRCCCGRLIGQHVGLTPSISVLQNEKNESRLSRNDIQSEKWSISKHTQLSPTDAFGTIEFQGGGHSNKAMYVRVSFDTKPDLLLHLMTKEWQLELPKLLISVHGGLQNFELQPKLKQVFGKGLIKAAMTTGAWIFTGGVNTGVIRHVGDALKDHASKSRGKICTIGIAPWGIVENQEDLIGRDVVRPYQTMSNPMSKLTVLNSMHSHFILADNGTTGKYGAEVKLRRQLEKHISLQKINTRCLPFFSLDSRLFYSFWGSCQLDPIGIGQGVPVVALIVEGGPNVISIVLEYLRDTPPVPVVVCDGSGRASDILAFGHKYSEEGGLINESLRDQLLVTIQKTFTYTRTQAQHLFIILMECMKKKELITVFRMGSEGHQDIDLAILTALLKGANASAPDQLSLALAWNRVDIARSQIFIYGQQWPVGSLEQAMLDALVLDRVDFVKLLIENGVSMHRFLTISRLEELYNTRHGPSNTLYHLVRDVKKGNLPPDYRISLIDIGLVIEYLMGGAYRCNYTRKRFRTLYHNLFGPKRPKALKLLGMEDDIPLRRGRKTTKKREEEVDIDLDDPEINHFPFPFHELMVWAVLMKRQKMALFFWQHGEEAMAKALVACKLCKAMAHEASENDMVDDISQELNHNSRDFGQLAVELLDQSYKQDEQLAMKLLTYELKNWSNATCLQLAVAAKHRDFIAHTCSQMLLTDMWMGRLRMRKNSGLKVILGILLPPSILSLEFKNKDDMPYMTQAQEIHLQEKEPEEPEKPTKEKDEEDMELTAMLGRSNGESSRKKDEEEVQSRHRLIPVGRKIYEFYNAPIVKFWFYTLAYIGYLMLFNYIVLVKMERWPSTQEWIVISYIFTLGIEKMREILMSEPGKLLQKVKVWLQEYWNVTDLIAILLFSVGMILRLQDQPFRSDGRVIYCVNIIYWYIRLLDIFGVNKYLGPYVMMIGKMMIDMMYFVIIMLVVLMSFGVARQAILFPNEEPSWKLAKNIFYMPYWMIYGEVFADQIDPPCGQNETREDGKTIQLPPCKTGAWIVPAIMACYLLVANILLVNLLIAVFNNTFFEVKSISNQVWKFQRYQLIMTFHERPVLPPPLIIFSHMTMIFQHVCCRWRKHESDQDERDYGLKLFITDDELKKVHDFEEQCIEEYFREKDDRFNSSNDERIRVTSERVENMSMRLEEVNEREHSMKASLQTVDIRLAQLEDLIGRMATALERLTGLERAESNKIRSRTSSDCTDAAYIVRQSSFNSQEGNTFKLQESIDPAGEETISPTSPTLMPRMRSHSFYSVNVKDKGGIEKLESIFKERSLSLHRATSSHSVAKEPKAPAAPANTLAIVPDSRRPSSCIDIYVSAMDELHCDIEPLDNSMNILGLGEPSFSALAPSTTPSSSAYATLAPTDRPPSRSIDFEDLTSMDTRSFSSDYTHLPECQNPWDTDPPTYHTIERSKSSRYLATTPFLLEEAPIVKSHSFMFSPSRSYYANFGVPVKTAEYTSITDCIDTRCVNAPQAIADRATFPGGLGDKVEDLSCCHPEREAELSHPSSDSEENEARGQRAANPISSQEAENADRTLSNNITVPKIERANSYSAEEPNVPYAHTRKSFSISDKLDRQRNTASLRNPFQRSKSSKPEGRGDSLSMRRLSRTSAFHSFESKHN", "assay": "Electrical recording of the large-conductance channel in single excised primary cilia of mIMCD-3 cells", "type": "biochemical, murine", "parameters": "mean single-channel conductance (slope) / extrapolated reversal potential (x-intercept): dose or concentration left out as unconfirmed", "details": "for increase of mean channel current (factor): +60 mV", "procedure": "(§1) Electrical recordings were made from primary cilia of mIMCD-3 cells. mIMCD-3 cells (murine epithelial cells from the renal inner medullary collecting duct, (CRL-2123, American Type Culture Collection, Manassas, Va., USA) were cultured on beads that were free to move in the recording chamber. Suction was applied to a recording pipette so that a single primary cilium entered the pipette. If a resistance of at least 1 GΩ formed between the membrane and the pipette, the cilium was excised from the cell. This left the cilium inside the recording pipette in the inside-out configuration. The pipette containing the cilium could then be transferred among different solutions that bathed the cytoplasmic face of the membrane. In one set of experiments (FIGS. 1 and 2), the external solution was replaced by perfusing the pipette (FIG. 14).\nDuring recording, the beads coated with cells were stored in a standard external solution containing (in mM) NaCl 140, KCl 5, CaCl2 2, MgCl2 2, sodium pyruvate 2, HEPES 5, and D-glucose 9.4, adjusted to pH 7.4 with NaOH. The recording pipettes also contained this solution except as noted. […] The standard cytoplasmic solution contained (in mM) KCl 140, NaCl 5, CaCl2 0.7, MgCl2 2, HEPES 5, BAPTA 2, and D-glucose 5, adjusted to pH 7.4 with KOH. This solution contained 0.1 μM free Ca^2+. To make a cytoplasmic solution with 3 μM free Ca^2+, BAPTA was replaced with dibromoBAPTA, and the total CaCl2 was increased to 1.4 mM. In buffered solutions, concentrations of free Ca^2+ were estimated by the method of Bers (see Bers D M: “A simple method for the accurate determination of free [Ca] in Ca-EGTA solutions” Am J Physiol Cell Physiol. 1982; 242: C404-C408), which is herein incorporated by reference in its entirety.\nAll recordings were done under voltage clamp at room temperature (24° C.). Equipment, software, and technical details, including corrections for liquid junction potentials, were conducted as described in the article: Kleene S J, Kleene N K. “The native TRPP2-dependent channel of murine renal primary cilia” Am J Physiol Renal Physiol. 2017; 312: F96-F108, which is herein incorporated by reference in its entirety. During acquisition, currents were low-pass filtered at 2 kHz and digitized at 5 kHz. Total mean channel current was measured as the mean current minus the current attributed to leak channels. The latter was determined from an amplitude histogram. […] Channel open probabilities were determined from amplitude histograms and are reported only when the number of channels in the membrane was unambiguous. The presence or absence of active TRPP2 channels was assessed with the cilium or patch exposed to 3 μM cytoplasmic Ca^2+ and the voltage clamped to +40 mV. If no large-conductance channels were seen to open within 2 min, active TRPP2 channels were judged to be absent."}, "TRPP2-dependent channels": {"biological_target": "T3, TRPP2-dependent channels (Mus musculus, UniProt J9SQF3)", "T3 construct": "Electrical recordings were made from primary cilia of mIMCD-3 cells; host or cells: mIMCD-3 cells, excised primary cilia (inside-out) or apical membrane patches", "T3 sequence (J9SQF3 whole entry)": "as above", "assay": "Incidences of TRPP2-dependent channels in apical and ciliary membranes", "type": "biochemical, murine", "details": "for incidence of TRPP2-dependent channels: PS 75 or 230 μM external, 3 μM cytoplasmic Ca2+, +40 mV", "procedure": "In Table 1, the presence or absence of active TRPP2 channels was assessed with the cilium or apical membrane patch exposed to 3 μM cytoplasmic Ca^2+ and the voltage clamped to +40 mV. If no large-conductance channels were seen to open within 2 min, active TRPP2 channels were judged to be absent. […] PS, pregnenolone sulfate; KO, knockout; ND, not determined.\nas §1\nAll recordings were done under voltage clamp at room temperature (24° C.). Equipment, software, and technical details, including corrections for liquid junction potentials, were conducted as described in the article: Kleene S J, Kleene N K. “The native TRPP2-dependent channel of murine renal primary cilia” Am J Physiol Renal Physiol. 2017; 312: F96-F108, which is herein incorporated by reference in its entirety. During acquisition, currents were low-pass filtered at 2 kHz and digitized at 5 kHz. Total mean channel current was measured as the mean current minus the current attributed to leak channels. The latter was determined from an amplitude histogram. In each cilium reported, the number of large-conductance channels was between 1 and 5. Channel open probabilities were determined from amplitude histograms and are reported only when the number of channels in the membrane was unambiguous. The presence or absence of active TRPP2 channels was assessed with the cilium or patch exposed to 3 μM cytoplasmic Ca^2+ and the voltage clamped to +40 mV. If no large-conductance channels were seen to open within 2 min, active TRPP2 channels were judged to be absent. These cilia have a second Ca^2+-activated channel, TRPM4, but it is not activated by the concentrations of cytoplasmic Ca^2+ used in this study ([…] The half-maximal effect of Ca^2+ on ciliary TRPM4 occurs at 646 μM at +100 mV and 1166 μM at −100 mV."}, "mIMCD-3 cells": {"tested_on": "mIMCD-3 cells", "assay": "Measuring intracellular calcium (Fura2-AM, F340/F380) in mIMCD-3 cells", "type": "cell-based, murine", "details": "200 μM pregnenolone sulfate in 0.4% DMSO", "procedure": "Wild-type (WT) mIMCD-3 cells and a clone of mIMCD-3 cells that lacked TRPP2 (TRPP2 KO) were grown to confluence in a 96-well plate and loaded with Fura2-AM, a ratiometric Ca^2+ indicator dye. The ratio of the fluorescence (after background subtraction) at 340 nm and 380 nm (F340/F380) correlates with the cytoplasmic Ca^2+ concentration. […] Unlike in the electrophysiological ciliary recordings, here the apical surface of the cell, including the cilium, is exposed to the pregnenolone sulfate. […] Responses from individual wells are shown as black circles. The experiment was done with two different passages for each cell line for a total of 19 wells per condition.\nWild-type mIMCD-3 cells and one mIMCD-3 clone with TRPP2 knocked out were grown to confluence in a 96-well plate. Standard external solution with 1 mM probenecid was used for all solutions. […] The ratio of the fluorescence (after background subtraction) at 340 nm and 380 nm (F340/F380) indicates the cytoplasmic Ca^2+ concentration and was measured on a BioTek Synergy 4 plate reader. Background fluorescence (wells with cells, 0.01% pluronic acid, and 0.1% DMSO in standard external solution, but no dye) was subtracted from the F340 and F380 readings. […]"}}, "data": [{"molecule": "Nc1ncnc2c1ncn2[C@@H]1O[C@H](COP(=O)(O)OP(=O)([O-])OP(=O)([O-])O)[C@@H](O)[C@H]1O.[Mg+2]", "note": "[MgATP]", "values": [{"measurement": "fraction of TRPM4 current remaining after addition of MgATP", "setting": "TRPM4", "result": "0.34±0.03"}]}, {"molecule": "Pregnenolone sulfate", "values": [{"measurement": "k (Boltzmann slope factor)", "setting": "[1]; 1 μM external PS, 3 μM cytoplasmic Ca2+", "result": "13.5 ± 1.0", "unit": "mV"}, {"measurement": "V1/2 (potential at which open probability is 0.5)", "setting": "[1]; 1 μM external PS, 3 μM cytoplasmic Ca2+, Vm −40 to +60 mV", "result": "−5.6 ± 1.1", "unit": "mV"}, {"measurement": "channel activation at 230 μM compared with 75 μM", "setting": "[1]; 3 μM cytoplasmic Ca2+, FIG. 7", "result": "no more effective"}, {"measurement": "k (Boltzmann slope factor)", "setting": "[1]; 10 μM external PS, 3 μM cytoplasmic Ca2+", "result": "18.3 ± 1.5", "unit": "mV"}, {"measurement": "V1/2 (potential at which open probability is 0.5)", "setting": "[1]; 10 μM external PS, 3 μM cytoplasmic Ca2+, Vm −40 to +50 mV", "result": "−21.4 ± 1.4", "unit": "mV"}, {"measurement": "k (Boltzmann slope factor)", "setting": "[1]; 75 μM external PS, KCl-based external solution, 3 μM cytoplasmic Ca2+", "result": "14.8 ± 0.9", "unit": "mV"}, {"measurement": "V1/2 (potential at which open probability is 0.5)", "setting": "[1]; 75 μM external PS, KCl-based external solution, 3 μM cytoplasmic Ca2+, Vm −140 to −20 mV", "result": "−67.2 ± 1.0", "unit": "mV"}, {"measurement": "increase of mean channel current (factor)", "setting": "[1]; […] μM cytoplasmic pregnenolone sulfate, 0.1 μM cytoplasmic Ca2+", "result": "3.6±0.7"}, {"measurement": "increase of mean channel current (factor)", "setting": "[1]; […] μM external (pipette) pregnenolone sulfate, 0.1 μM cytoplasmic free Ca2+", "result": "30±12"}, {"measurement": "extrapolated reversal potential (x-intercept)", "setting": "[1]; […] μM external pregnenolone sulfate, standard external solution", "result": "−67±2", "unit": "mV"}, {"measurement": "mean single-channel conductance (slope)", "setting": "[1]; […] μM external pregnenolone sulfate, standard external solution, fit −40 to +50 mV", "result": "92±3", "unit": "pS"}, {"measurement": "fraction of the mean channel current remaining after replacing external solution with one lacking pregnenolone sulfate", "setting": "[1]; after 75 μM external pregnenolone sulfate, −10 mV, free Ca2+ 3", "result": "0.14±0.08"}, {"measurement": "channel activity (open probability)", "setting": "[1]; external pregnenolone sulfate up to 75 μM, 0.1 μM cytoplasmic Ca2+, FIG. 5", "result": "significantly increased the channel activity"}, {"measurement": "incidence of TRPP2-dependent channels", "setting": "TRPP2-dependent channels; apical membrane, TRPM3 KO", "result": "0/34"}, {"measurement": "incidence of TRPP2-dependent channels", "setting": "TRPP2-dependent channels; apical membrane, TRPP2 KO", "result": "0/30"}, {"measurement": "incidence of TRPP2-dependent channels", "setting": "TRPP2-dependent channels; apical membrane, wild type", "result": "3/57"}, {"measurement": "incidence of TRPP2-dependent channels", "setting": "TRPP2-dependent channels; ciliary membrane, TRPP2 KO", "result": "0/28"}, {"measurement": "incidence of TRPP2-dependent channels", "setting": "TRPP2-dependent channels; ciliary membrane, wild type", "result": "77/259"}, {"measurement": "cilia in which channels were observed", "setting": "TRPP2-dependent channels; wild type cilia exposed to pregnenolone sulfate", "result": 30, "unit": "%"}, {"measurement": "cytoplasmic Ca2+ response (Post Stim. F340/F380 − Pre Stim. F340/F380)", "setting": "mIMCD-3 cells; TRPP2 KO mIMCD-3 cells, compared with wild-type", "result": "smaller response"}, {"measurement": "cytoplasmic Ca2+ response (Post Stim. F340/F380 − Pre Stim. F340/F380)", "setting": "mIMCD-3 cells; wild-type mIMCD-3 cells", "result": "increased cytoplasmic Ca^2+"}]}]}
